This test deals with T1, acetylcholinesterase (AChE) (Homo sapiens, UniProt P22303).
T1 construct: derived from human erythrocytes (Sigma)
Description: Ellman spectrophotometric assay, acetylthiocholine hydrolysis at […] nm. In kind it is biochemical. A general note: In Ellman's method for cholinesterases, released thiocholine reacts with DTNB.

T1 sequence (P22303 32-614): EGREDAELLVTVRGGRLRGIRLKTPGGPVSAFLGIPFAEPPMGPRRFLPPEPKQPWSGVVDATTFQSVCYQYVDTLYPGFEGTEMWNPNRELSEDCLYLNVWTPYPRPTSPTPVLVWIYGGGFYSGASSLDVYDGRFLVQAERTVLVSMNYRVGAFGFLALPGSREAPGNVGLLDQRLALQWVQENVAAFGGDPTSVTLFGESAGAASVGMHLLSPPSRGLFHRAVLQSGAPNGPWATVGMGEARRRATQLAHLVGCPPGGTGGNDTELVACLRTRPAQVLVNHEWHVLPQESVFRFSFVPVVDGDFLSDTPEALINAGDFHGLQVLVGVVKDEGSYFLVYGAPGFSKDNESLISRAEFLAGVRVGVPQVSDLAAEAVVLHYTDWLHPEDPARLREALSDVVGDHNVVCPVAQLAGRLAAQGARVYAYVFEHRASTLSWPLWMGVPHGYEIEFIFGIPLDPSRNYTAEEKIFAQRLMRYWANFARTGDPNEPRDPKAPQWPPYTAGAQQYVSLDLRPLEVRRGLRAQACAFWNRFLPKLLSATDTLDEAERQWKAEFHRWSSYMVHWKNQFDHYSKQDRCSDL

In general, IC50 refers to the point on the concentration scale where inhibition reaches its midpoint. A higher IC50 goes with weaker potency. In the case of `CC(=O)O[C@@H]1C[C@@]23C[C@@]24CC[C@H](O[C@@H]2OC[C@H](O)[C@H](O)[C@H]2O)C(C)(C)[C@@H]4CC=C3[C@]2(C)C(=O)C(=O)[C@@]3(O[C@@H]([C@H](O)C(C)(C)O)C[C@H]3C)[C@@]12C` [compound 1, (3β,12β,17S,20R,23R,24S)-17,23-Epoxy-15,16-dione-12-acetoxy-3,25-dihydroxy-7-en-9,19-cycloart-3-O-α-larabinopyranoside], inhibition was half-maximal at 1.58 µM (IC50).
With `Cc1cc(C=O)nc2c1[C@@]1(C)C[C@H](O)[C@@]34C[C@@]35CC[C@H](O[C@@H]3OC[C@H](O)[C@H](O)[C@H]3O)C(C)(C)[C@@H]5CC=C4[C@]1(C)C2` [compound 2, (3β,11β)-11-Hydroxy-16,23-nitrilo-7,17(20),22-trien-24-formyl-25,26,27-trinor-9,19-cycloart-3-O-α-larabinopyranoside], inhibition was half-maximal at 3.87 µM (IC50).

For the origin of these results see publication PMC9078504, “Antiacetylcholinesterase triterpenes from the fruits of Cimicifuga yunnanensis” (RSC Advances, 2018).
